For series [1], the system named is Jurkat cells. The series can be described thus: Cell surface azide expression: reaction with biotinylated phosphine, FITC-avidin staining, flow cytometry. The format is cell-based, human. On the technique in general: In flow cytometry, cells or beads pass a laser one at a time.
In series [2] the test system is Jurkat cells. Description: Competition with ManLev metabolism: cell surface ketone detection with biotin hydrazide and FITC-avidin, flow cytometry. The format is cell-based, human. The conditions noted are these: 3 days, increasing concentrations of acetylated ManAz (Ac4MA) with acetylated ManLev (Ac4ML), FIG. 3.
Series [3] has as its system HeLa cells. Description: Cell surface azide expression and growth after the modified Staudinger reaction in HeLa cells.
In series [4] the test system is Jurkat cells. The series can be described thus: Propidium iodide assay, percentage of viable cells by flow cytometry. Format: cell-based, human. The settings on record: Jurkat cells after 3 days with ManAz, FIG. 2. The procedure: Flow cytometry. Flow cytometry analysis was performed on a Coulter EPICS® XL-MCL cytometer (Coulter, Miami, Fla.) using a 488 nm argon laser. At least 10^4 viable cells were analyzed from each sample. Dead cells were excluded from the analysis using forward/side scatter gating.
Propidium iodide assay. After growth in the presence of the appropriate sugars, cells were pelleted (3000×g, 2 min), washed twice with 1 mL avidin staining buffer (0.1% NaN3, 0.1% FBS in PBS, pH 7.4) and diluted to a volume of 300 μL. Immediately prior to flow cytometry analysis, 10 μL of propidium iodide solution (1 mM in PBS) was added to each sample.
(§1) Toxicity was ascertained by incubating Jurkat cells, a human T-cell lymphoma cell line, with ManAz for three days at a range of concentrations, using the natural substrate ManNAc (1) as a negative control. Each experiment was performed in triplicate. The cells were counted to determine whether addition of 20 was inhibiting cell growth.

Series [5] concerns Jurkat cells. The series can be described thus: Growth of Jurkat cells incubated with ManAz for three days (cell counting). Format: cell-based, human. The settings on record: ManAz at a range of concentrations, ManNAc as negative control, FIG. 1. The procedure: Jurkat cell cultures. Cell cultures of Jurkat were maintained in RPMI 1640 media (Gibco Laboratories, Grand Island, N.Y.) supplemented with 5% fetal bovine serum (FBS, Hyclone, Logan, Utah), 50 units/mL of penicillin and 50 μg/mL of streptomycin (Mediatech, Hemdon, Va.), in a humidified 5% CO2 atmosphere at 37° C. Cell densities were determined using a Coulter Counter-Z2 (Coulter, Miami, Fla.),
Treatment of cells with mannosamine derivatives. Cultures of Jurkat cells were seeded at a density of 1.25×10^5 cells/mL into 12-well tissue culture plates in a total volume of 2 mL of culture media. The appropriate amount of each sugar (1, 3, 20, 36, 37) in a solution of PBS was added and the cells were incubated for 3 d. Control wells containing no added sugar were also seeded with cells and incubated.
as §1

Series [6] relates to cell surface. The series can be described thus: Side-by-side comparison with the cell surface ketone reaction. The format is cell-based. The conditions noted are these: same reagent concentrations. The source says: This may reflect either a faster reaction at the cell surface, or more efficient metabolism of azidosugar 20 as compared to the ketosugar. The azide has a major advantage over the ketone in that its reactivity is unique in a cellular context due its abiotic nature. Ketones, by contrast, abound inside cells in the form of metabolites such as pyruvic acid and oxaloacetate. It should be noted that the modified Staudinger reaction is chemically orthogonal to ketone ligations and should allow tandem modification of cell surfaces with the two chemistries.

In series [7] the test system is Jurkat cells. Description: Cell surface disulfide bond reduction: free sulfhydryl groups detected with iodoacetylbiotin and FITC-avidin. Format: cell-based, human. The conditions noted are these: 1 mM phosphine, 1 hour, relative to cells exposed to iodoacetylbiotin alone, FIG. 9. The protocol:
To satisfy the requirement of chemical orthogonality, both participants in the reaction may not engage functional groups endogenous to cells. Triarylphosphines are mild reducing agents, which raises the possibility of disulfide bond reduction as an undesirable side reaction. We addressed this issue by incubating Jurkat cells with triarylphosphine, an intermediate in the synthesis of 47, and quantifying the appearance of free sulfhydryl groups on the cell surface with iodoacetylbiotin and FITC-avidin (FIG. 9). Following incubation, cells were pelleted washed with PBS, and diluted to a volume of 240 μl. Samples were combined with 60 μl of a solution of iodoacetylbiotin (5 mM in PBS), After incubation in the dark at room temperature for 1.5 hrs, the cells were washed with buffer, stained with FITC-avidin, and analyzed by flow cytometry.
After 1 hour in the presence of 1 mM triarylphosphine, no detectable increase in free sulfhydryl groups was observed relative to cells exposed to iodoacetylbiotin alone (FIG. 9). In a positive control experiment, Jurkat cells were incubated with the trialkylphosphine TCEP (1 mM, 1 hour, room temperature), a commercial disulfide bond reducing agent. […] Therefore, triarylphosphines are essentially unreactive toward disulfide bonds under these conditions, rendering ligation with azides the predominant pathway for reactivity.

As to tunicamycin [reference compound], the “fluorescence signal with tunicamycin added during azidosugar incubation” value in series [1] (tunicamycin present during incubation with the azidosugar) was “reduced”.

Consider `CC(=O)OC[C@H]1OC(OC(C)=O)[C@@H](NC(=O)CN=[N+]=[N-])[C@@H](OC(C)=O)[C@@H]1OC(C)=O` (stereo partly drawn) [compound 36, 1,3,4,6-Tetra-O-acetyl-N-azidoacetylmannosamine], for which the “biotin moieties accumulated on the cell surface” value is listed as “approximately 4.5 million” in series [1] (40 μM acetylated 3 for 3 days, then 2 mM compound 5 for 3 hours); “approximately 4.5 million” in series [1] (40 AM acetylated 20 for 3 days, then 2 mM compound 47 for 3 hours); “approximately 850,000 biotin moieties” in series [1] (acetylated 20 for 3 days, then 1 mM compound 47 for 1 hour, calibrated with biotinylated beads). Further, the “fluorescence (biotin moieties on the cell surface, FITC-avidin)” value in series [1] (acetylated azidosugar 20 μM for 3 days, then compound 47 (1 mM in PBS, pH 7.4) 1 hr at room temperature, versus untreated cells, FIG. 5) was “dramatic increase in fluorescence”. The “fluorescence from ketone labeling (competition with acetylated ManLev)” value in series [2] was “proportionately decreasing fluorescence”. The “growth rate after the modified Staudinger reaction” value in series [3] (HeLa cells cultured for an additional 3 days after the reaction) is reported as “no change in growth rate”. The “fluorescence after azidosugar incubation and phosphine reaction” value in series [3] (HeLa cells, compared with the Jurkat result) is given as “responded similarly”.

As to `[N-]=[N+]=NCC(=O)N[C@@H]1C(O)O[C@H](CO)[C@@H](O)[C@@H]1O` (stereo partly drawn) [compound 20, N-azidoacetylmannosamine], the “percentage of viable cells” value in series [4] is “No significant change in the percentage of viable cells”. The “number of cells observed after 3 days of growth” value in series [5] is listed as “a decrease in the number of cells observed after 3 days of growth in a dose-dependent fashion”. In series [6], the “fluorescence of azidosugar metabolism plus phosphine reaction versus ketosugar metabolism plus hydrazide reaction” value is on record as “two-fold higher fluorescence”.

As for `O=C(O)CCP(CCC(=O)O)CCC(=O)O` [TCEP], in series [7], the “free sulfhydryl groups on the cell surface” value is recorded as “dramatic increase in free cell-surface sulfhydryl groups”.
